Broadly, the IC50 is the concentration needed to halve the response being measured. The EC50 is the concentration at which the effect is half-maximal.

For two compounds, IC50 and EC50 results are on record in patent publication US9284307B2, “Macrocyclic serine protease inhibitors” (Idenix Pharmaceuticals LLC, priority 2009, dated 2016).

The target of one assay is T1, CYP3A4 (Homo sapiens, UniProt P08684).
T1 construct: purchased BD Bioscience 459100
As to the kind of experiment: In vitro CYP450 inhibition screen, fluorogenic assay, CYP3A4. The format is in vitro ADME. The following applies: probe substrate 7-Benzyloxy-trifluoromethylcoumarin, average of two independent experiments, read-out: IC50 (μM) or % Inhibition at 20 μM, CYP450 3A4. Here is the method: CYP1A2 (BD Bioscience Cat #459500), CYP2B6 (BD Bioscience cat #459220), and CYP3A4 (BD Bioscience Cat #459100) inhibition fluorogenic assays were performed according to the manufacturer's protocol. Test articles were prepared as 10 mM stock solutions in DMSO.
Data represent the average of two independent experiments. A represents inhibition of 5 to 10%. B represents inhibition of >10% to 20%. C represents inhibition of >20% to 30%. D represents inhibition of >30% to 40%. I represents an IC50 of 5 to 9 μM.

The subject of assay [1] is HCV genotype 1b Con1 strain subgenomic luciferase replicon (Zluc) in Huh-7 cells. Kind of assay: Luciferase replicon assay, genotype 1b (Zluc). The format is cell-based. As to conditions: Hepatitis C virus, genotype 1b Con1 luciferase replicon (Zluc), 72 hours, read-out: EC50 Against Relpicon 1b. Here is the method:
The HCV luciferase replicon assay measures the ability of a test compound to inhibit HCV replication in cell culture after 3 days of treatment in a human hepatoma cell line (Huh-7) bearing a HCV replicon containing a luciferase-neomycin phosphotransferase fusion gene. The inhibition of HCV replication was measured by quantification of luciferase protein expression. Briefly, Huh-7 cells containing either the HCV genotype 1a H77 strain or genotype 1b Con1 strain subgenomic luciferase replicon (H1a-luc or Zluc, respectively) were grown in DMEM containing glucose, L-glutamine and sodium pyruvate, 10% fetal bovine serum (FBS), 100 IU/mL penicillin, 100 μg/mL streptomycin, 2 mM GlutaMAX, non-essential amino acids and 0.25 (H1a-luc) or 0.5 (Zluc) mg/mL G418. GlutaMAX was obtained from Invitrogen. Corp.; all other media reagents were obtained from Mediatech, Inc. For dose-response testing, the cells were seeded in 96-well plates at 1×10^4 (H1a-luc) or 7.5×10^3 (Zluc) cells/well in a volume of 50 μL, and incubated at 37° C./5% CO2. […] The assay plates were shaken for 3 minutes at room temperature and luciferase activity for each well was measured with a 1 sec read time on the Victor^3V multilabel counter using a 700 nm cut-off filter (Perkin Elmer). EC50 values were calculated from dose response curves from the resulting best-fit equations determined by Microsoft Excel and XLfit 4.1 software.
In general terms: Replicon systems follow genome replication, usually without infectious particles.

For assay [2], the system named is JFH-1 HCV virus (genotype 2a). Kind of assay: Genotype 2a infectious virus assay (JFH-1, HCV core ELISA in HPC cells). The format is cell-based. The following applies: Hepatitis C virus, 120 h, 5 days. Here is the method: The genotype 2a infectious virus assay measures the ability of a test compound to inhibit HCV replication in cell culture after 5 days of treatment at the time of HCV genotype 2a virus infection of a permissive human hepatoma cell line (HPC cells). The inhibition of HCV replication was measured by quantification of HCV core protein expression by an enzyme-linked immunosorbent assay (ELISA). Briefly, HPC cells were grown in DMEM containing glucose, L-glutamine and sodium pyruvate, 10% FBS, 100 IU/mL penicillin, 100 μg/mL streptomycin, 2 mM GlutaMAX, and non-essential amino acids. GlutaMAX was obtained from Invitrogen, Corp.; all other media reagents were obtained from Mediatech, Inc. For dose-response testing, ninety-six-well plates were seeded with HPC cells at a density of 2.5×10^3 cells/well in a volume of 50 μL, and incubated at 37° C./5% CO2. Three hours after plating, 50 μL of ten 5-fold serial dilutions of compound and 100 μL of genotype 2a virus were added, and cell cultures were incubated at 37° C./5% CO2. […]
The HCV in vitro infection core ELISA assay measures the ability of a test compound to inhibit replication of an infectious HCV (strain JFH-1; genotype 2a) in cell culture. […] The readout of the assay is quantification of HCV core protein by ELISA 5 days post infection with JFH-1 virus and treatment with a test compound. […]
In general terms: In an ELISA, binding on a coated surface is turned into a signal by an enzyme label.

T1 sequence (P08684 whole entry): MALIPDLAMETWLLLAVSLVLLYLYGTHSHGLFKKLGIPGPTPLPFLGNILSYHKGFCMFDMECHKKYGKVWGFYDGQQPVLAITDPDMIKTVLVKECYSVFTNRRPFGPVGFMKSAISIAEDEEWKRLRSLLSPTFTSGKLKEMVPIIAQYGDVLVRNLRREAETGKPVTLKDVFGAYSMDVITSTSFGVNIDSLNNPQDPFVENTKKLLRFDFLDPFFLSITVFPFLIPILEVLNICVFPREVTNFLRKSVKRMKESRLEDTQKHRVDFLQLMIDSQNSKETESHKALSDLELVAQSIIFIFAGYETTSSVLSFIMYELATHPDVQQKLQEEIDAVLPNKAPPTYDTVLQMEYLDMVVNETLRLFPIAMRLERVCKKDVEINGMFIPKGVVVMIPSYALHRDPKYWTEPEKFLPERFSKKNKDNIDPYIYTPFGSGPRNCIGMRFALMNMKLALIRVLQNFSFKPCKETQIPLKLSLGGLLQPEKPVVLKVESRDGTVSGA

In the case of `COc1ccc2c(O[C@H]3CC[C@H]4C(=O)N(C)CCCC/C=C\[C@@H]5C[C@@]5(C(=O)NS(=O)(=O)C5(C)CC5)NC(=O)[C@@H]4C3)cc(-c3nc(C(F)(F)F)cs3)nc2c1C` [Compound 51], the IC50 on CYP3A4 lay within 20 to 25 µM. The EC50 in assay [1] and in assay [2] was below 1000 nM each time.
As to `C#Cc1csc(-c2cc(O[C@H]3CC[C@H]4C(=O)N(C)CCCC/C=C\[C@@H]5C[C@@]5(C(=O)NS(=O)(=O)C5(C)CC5)NC(=O)[C@@H]4C3)c3ccc(OC)c(C)c3n2)n1` [Compound 52, (1aR,3aR,5S,7aR,15aS,Z)-5-(2-(4-ethynylthiazol-2-yl)-7-methoxy-8-methylquinolin-4-yloxy)-9-methyl-N-(1-methylcyclopropylsulfonyl)-3,8-dioxo-1a,2,3,3a,4,5,6,7,7a,8,9,10,11,12,13,15a-hexadecahydro-1H-benzo[c]cyclopropa[g][1,6]diazacyclotetradecine-1a-carboxamide], the IC50 at CYP3A4 lay within 15 to 20 µM. In addition, the EC50 in assay [1] and in assay [2] was below 1000 nM each time.
